Results taken from PubChem BioAssay (NCI).
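Method: 48-hour compound exposure of cells in 96-well plates, five concentrations, linear interpolation of endpoints. At the GI50, growth is halved. TGI is the concentration that stops growth completely.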

Columns and labels:
Test in all cases: NCI-60 cell line screen, 48 h
A498 renal = system: A498 renal
A549 NSCLC = system: A549 NSCLC
ACHN renal = system: ACHN renal
BT-549 breast = system: BT-549 breast
CAKI-1 renal = system: CAKI-1 renal
CCRF-CEM leukemia = system: CCRF-CEM leukemia
COLO 205 colon = system: COLO 205 colon
DU-145 prostate = system: DU-145 prostate
EKVX NSCLC = system: EKVX NSCLC
HCC-2998 colon = system: HCC-2998 colon
HCT-116 colon = system: HCT-116 colon
HCT-15 colon = system: HCT-15 colon
HL-60(TB) leukemia = system: HL-60(TB) leukemia
HOP-62 NSCLC = system: HOP-62 NSCLC
HOP-92 NSCLC = system: HOP-92 NSCLC
HS 578T breast = system: HS 578T breast
HT29 colon = system: HT29 colon
IGROV1 ovarian = system: IGROV1 ovarian
K-562 leukemia = system: K-562 leukemia
KM12 colon = system: KM12 colon
LOX IMVI melanoma = system: LOX IMVI melanoma
M14 melanoma = system: M14 melanoma
MALME-3M melanoma = system: MALME-3M melanoma
MCF7 breast = system: MCF7 breast
MDA-MB-231 breast = system: MDA-MB-231 breast
MDA-MB-468 breast = system: MDA-MB-468 breast
MOLT-4 leukemia = system: MOLT-4 leukemia
NCI-H226 lung = system: NCI-H226 lung
NCI-H23 lung = system: NCI-H23 lung
NCI-H460 lung = system: NCI-H460 lung
NCI-H522 lung = system: NCI-H522 lung
NCI/ADR-RES ovarian = system: NCI/ADR-RES ovarian
OVCAR-3 ovarian = system: OVCAR-3 ovarian
OVCAR-4 ovarian = system: OVCAR-4 ovarian
OVCAR-5 ovarian = system: OVCAR-5 ovarian
PC-3 prostate = system: PC-3 prostate
RPMI-8226 leukemia = system: RPMI-8226 leukemia
RXF 393 renal = system: RXF 393 renal
SF-268 CNS = system: SF-268 CNS
SF-295 CNS = system: SF-295 CNS
SF-539 CNS = system: SF-539 CNS
SK-MEL-2 melanoma = system: SK-MEL-2 melanoma
SK-MEL-28 melanoma = system: SK-MEL-28 melanoma
SK-MEL-5 melanoma = system: SK-MEL-5 melanoma
SK-OV-3 ovarian = system: SK-OV-3 ovarian
SNB-19 CNS = system: SNB-19 CNS
SNB-75 CNS = system: SNB-75 CNS
SR leukemia = system: SR leukemia
SW-620 colon = system: SW-620 colon
T-47D breast = system: T-47D breast
TK-10 renal = system: TK-10 renal
U251 CNS = system: U251 CNS
UACC-257 melanoma = system: UACC-257 melanoma
UACC-62 melanoma = system: UACC-62 melanoma

CC(=O)NCC1=C(C)C=C2C(=O)[C@](C)(O)C3(CC3)C(C)=C21
GI50 (A498 renal): 25.7 nM | TGI (A498 renal): 65.5 nM | GI50 (A549 NSCLC): 31.2 nM | TGI (A549 NSCLC): 330 nM | GI50 (ACHN renal): 22.8 nM | TGI (ACHN renal): 57.8 nM | GI50 (BT-549 breast): 27.7 nM | TGI (BT-549 breast): 99.1 nM | GI50 (CAKI-1 renal): 40.4 nM | TGI (CAKI-1 renal): 791 nM | GI50 (CCRF-CEM leukemia): 13500 nM | TGI (CCRF-CEM leukemia): > 84900 nM | GI50 (COLO 205 colon): 39 nM | TGI (COLO 205 colon): 162 nM | GI50 (DU-145 prostate): 27.5 nM | TGI (DU-145 prostate): 233 nM | GI50 (EKVX NSCLC): 116 nM | TGI (EKVX NSCLC): 356 nM | GI50 (HCC-2998 colon): 28.7 nM | TGI (HCC-2998 colon): 103 nM | GI50 (HCT-116 colon): 50.9 nM | GI50 (HCT-15 colon): 44 nM | TGI (HCT-15 colon): 325 nM | GI50 (HL-60(TB) leukemia): 27.9 nM | TGI (HL-60(TB) leukemia): 876 nM | GI50 (HOP-62 NSCLC): 24.6 nM | TGI (HOP-62 NSCLC): 76.1 nM | GI50 (HOP-92 NSCLC): 26.1 nM | TGI (HOP-92 NSCLC): 70.2 nM | GI50 (HS 578T breast): 204 nM | TGI (HS 578T breast): 678 nM | GI50 (HT29 colon): 35.6 nM | GI50 (IGROV1 ovarian): 28 nM | TGI (IGROV1 ovarian): 80.4 nM | GI50 (K-562 leukemia): 15000 nM | TGI (K-562 leukemia): > 100000 nM | GI50 (KM12 colon): 257 nM | TGI (KM12 colon): 5850 nM | GI50 (LOX IMVI melanoma): 136 nM | TGI (LOX IMVI melanoma): 354 nM | GI50 (M14 melanoma): 71.2 nM | TGI (M14 melanoma): 220 nM | GI50 (MALME-3M melanoma): 60.2 nM | TGI (MALME-3M melanoma): 181 nM | GI50 (MCF7 breast): 214 nM | TGI (MCF7 breast): > 20600 nM | GI50 (MDA-MB-231 breast): 67 nM | TGI (MDA-MB-231 breast): 306 nM | GI50 (MDA-MB-468 breast): < 13.6 nM | TGI (MDA-MB-468 breast): 30.3 nM | GI50 (MOLT-4 leukemia): 8440 nM | TGI (MOLT-4 leukemia): > 100000 nM | GI50 (NCI-H226 lung): 143 nM | TGI (NCI-H226 lung): 615 nM | GI50 (NCI-H23 lung): 15.9 nM | TGI (NCI-H23 lung): 37.2 nM | GI50 (NCI-H460 lung): 22.5 nM | TGI (NCI-H460 lung): 132 nM | GI50 (NCI-H522 lung): 254 nM | TGI (NCI-H522 lung): 997 nM | GI50 (NCI/ADR-RES ovarian): 64.8 nM | TGI (NCI/ADR-RES ovarian): 323 nM | GI50 (OVCAR-3 ovarian): 39.7 nM | TGI (OVCAR-3 ovarian): 472 nM | GI50 (OVCAR-4 ovarian): 71 nM | TGI (OVCAR-4 ovarian): 322 nM | GI50 (OVCAR-5 ovarian): 34.2 nM | TGI (OVCAR-5 ovarian): 240 nM | GI50 (PC-3 prostate): 68 nM | TGI (PC-3 prostate): 898 nM | GI50 (RPMI-8226 leukemia): 22900 nM | TGI (RPMI-8226 leukemia): > 83500 nM | GI50 (RXF 393 renal): 16.4 nM | TGI (RXF 393 renal): 32.8 nM | GI50 (SF-268 CNS): 33.2 nM | TGI (SF-268 CNS): 577 nM | GI50 (SF-295 CNS): 26.2 nM | TGI (SF-295 CNS): 122 nM | GI50 (SF-539 CNS): 22.5 nM | TGI (SF-539 CNS): 56.5 nM | GI50 (SK-MEL-2 melanoma): 179 nM | TGI (SK-MEL-2 melanoma): 346 nM | GI50 (SK-MEL-28 melanoma): 125 nM | TGI (SK-MEL-28 melanoma): 293 nM | GI50 (SK-MEL-5 melanoma): 70.4 nM | TGI (SK-MEL-5 melanoma): 216 nM | GI50 (SK-OV-3 ovarian): 30.1 nM | TGI (SK-OV-3 ovarian): 99.3 nM | GI50 (SNB-19 CNS): 163 nM | TGI (SNB-19 CNS): 751 nM | GI50 (SNB-75 CNS): 19.7 nM | TGI (SNB-75 CNS): 73.5 nM | GI50 (SR leukemia): 5700 nM | TGI (SR leukemia): > 100000 nM | GI50 (SW-620 colon): 13400 nM | TGI (SW-620 colon): 38700 nM | GI50 (T-47D breast): 43.8 nM | TGI (T-47D breast): 840 nM | GI50 (TK-10 renal): 36.4 nM | GI50 (U251 CNS): 51 nM | GI50 (UACC-257 melanoma): 93.4 nM | TGI (UACC-257 melanoma): 290 nM | GI50 (UACC-62 melanoma): 132 nM | TGI (UACC-62 melanoma): 278 nM

Clc1ccc2nnnn2n1
GI50 (MDA-MB-468 breast): 5060 nM | TGI (MDA-MB-468 breast): 25100 nM

C=C(C)[C@@H]1CC[C@]2(C)[C@H](CC=C3[C@@H]4[C@@H](C)[C@H](C)CC[C@]4(C(N)=O)CC[C@]32C)[C@@]1(C)CCC#N
GI50 (MDA-MB-468 breast): 3150 nM | TGI (MDA-MB-468 breast): 12800 nM

CN(C)CC1C(=O)O[C@H]2[C@H]1CC/C(COC(=O)c1cc3ccccc3[nH]1)=C\CC[C@@]1(C)O[C@@H]21 (stereo not given in full)
GI50 (MDA-MB-468 breast): 1440 nM | TGI (MDA-MB-468 breast): 3140 nM
